In PubChem BioAssay AID248 (DTP/NCI, 2004):
Several values for one entry are separate records, joined by “and”; a condition that tells them apart may be missing. Equal entries are not always repeated. Toxic doses and inconclusive results are not listed. Cut-off read from the data, not from the text of the source: active = T/C of 150% or more; inactive = T/C below 125%.

Tested on: L1210 leukemia ip in BDF1 mice, survival T/C
Assay: NCI In Vivo Anticancer Drug Screen. Data for tumor model L1210 Leukemia (intraperitoneal) in B6D2F1 (BDF1) mice
Details: endpoint: mean survival time, higher = longer survival
In short: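 Antitumor effect is assessed in tumor-bearing animals. Survival in the compound arm is compared with a vehicle-dosed control arm and expressed as their quotient.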

[1] = dose: 100.0 mg/kg/injection, schedule: Q04DX003 (ip), vehicle: saline
[2] = dose: 100.0 mg/kg/injection, schedule: Q01DX001 (ip), vehicle: saline
[3] = dose: 200.0 mg/kg/injection, schedule: Q01DX001 (ip), vehicle: saline
[4] = dose: 400.0 mg/kg/injection, schedule: Q01DX001 (ip), vehicle: saline
[5] = dose: 200.0 mg/kg/injection, schedule: Q04DX003 (ip), vehicle: saline
[6] = dose: 100.0 mg/kg/injection, schedule: Q04DX002 (ip), vehicle: Klucel (hydroxypropylcellulose) (HPC)
[7] = dose: 200.0 mg/kg/injection, schedule: Q04DX002 (ip), vehicle: Klucel (hydroxypropylcellulose) (HPC)
[8] = dose: 400.0 mg/kg/injection, schedule: Q04DX002 (ip), vehicle: Klucel (hydroxypropylcellulose) (HPC)
[9] = dose: 100.0 mg/kg/injection, schedule: Q01DX009 (ip), vehicle: saline with Tween-80
[10] = dose: 200.0 mg/kg/injection, schedule: Q01DX009 (ip), vehicle: saline with Tween-80
[11] = dose: 100.0 mg/kg/injection, schedule: Q04DX002 (ip), vehicle: saline with Tween-80
[12] = dose: 200.0 mg/kg/injection, schedule: Q04DX002 (ip), vehicle: saline with Tween-80
[13] = dose: 400.0 mg/kg/injection, schedule: Q04DX002 (ip), vehicle: saline with Tween-80
[14] = dose: 100.0 mg/kg/injection, schedule: Q01DX001 (ip), vehicle: saline with Tween-80
[15] = dose: 100.0 mg/kg/injection, schedule: Q04DX003 (ip), vehicle: saline with Tween-80
[16] = dose: 400.0 mg/kg/injection, schedule: Q01DX001 (ip), vehicle: saline with Tween-80
[17] = dose: 400.0 mg/kg/injection, schedule: Q01DX009 (ip), vehicle: saline with Tween-80
[18] = dose: 400.0 mg/kg/injection, schedule: Q04DX003 (ip), vehicle: saline with Tween-80

Measured: T/C

CN1C(c2ccccc2)NC(=O)C12CCN(CCCC(=O)c1ccccc1)CC2 (stereo unspecified)
inactive: dose: 100.0 mg/kg/injection, schedule: Q01DX001 (ip), vehicle: Klucel (hydroxypropylcellulose) (HPC) 100 % of control | dose: 200.0 mg/kg/injection, schedule: Q01DX001 (ip), vehicle: Klucel (hydroxypropylcellulose) (HPC) 96 % of control | dose: 400.0 mg/kg/injection, schedule: Q01DX001 (ip), vehicle: Klucel (hydroxypropylcellulose) (HPC) 100 % of control

CN1C(=O)C2(C)CCC1c1ccccc12 (stereo unspecified)
inactive: dose: 100.0 mg/kg/injection, schedule: Q01DX001 (ip), vehicle: other 103 % of control | dose: 200.0 mg/kg/injection, schedule: Q01DX001 (ip), vehicle: other 103 % of control

CN1CCC(OC(=O)C2CC(=O)N(C)C(=O)C2)CC1
inactive: dose: 25.0 mg/kg/injection, schedule: Q04DX003 (ip), vehicle: saline 98 % of control | dose: 50.0 mg/kg/injection, schedule: Q04DX003 (ip), vehicle: saline 98 % of control | [1] 100 % of control

CCOC(=O)c1cnc(SC)[nH]c1=O
inactive: dose: 50.0 mg/kg/injection, schedule: Q01DX001 (ip), vehicle: saline 92 % of control | [2] 95 % of control | [3] 98 % of control | [4] 98 % of control

Cc1n[nH]c(=S)n1C
inactive: [1] 108 % of control | [5] 113 % of control

CC/C(N)=C\C(=O)c1ccccc1
inactive: [6] 102 % of control | [7] 105 % of control | [8] 98 % of control

S=c1[nH]sc(=S)[nH]1
inactive: [9] 100 % of control | [10] 98 % of control

Cc1cc(C(=O)O)ccc1Cl
inactive: dose: 100.0 mg/kg/injection, schedule: Q04DX003 (ip), vehicle: other 101 % of control | dose: 200.0 mg/kg/injection, schedule: Q04DX003 (ip), vehicle: other 101 % of control | dose: 400.0 mg/kg/injection, schedule: Q04DX003 (ip), vehicle: other 103 % of control

COC(=O)[CH]([Hg][O]C(C)=O)C(OC)c1ccccc1 (stereo unspecified)
inactive: dose: 3.0 mg/kg/injection, schedule: Q04DX002 (ip), vehicle: carboxymethylcellulose (CMC) 86 % of control | dose: 6.0 mg/kg/injection, schedule: Q04DX002 (ip), vehicle: carboxymethylcellulose (CMC) 93 % of control | dose: 12.5 mg/kg/injection, schedule: Q04DX002 (ip), vehicle: carboxymethylcellulose (CMC) 94 % of control | dose: 25.0 mg/kg/injection, schedule: Q04DX002 (ip), vehicle: carboxymethylcellulose (CMC) 98 % of control

CC(=O)OC1CC2C(=O)CC1(C)C2(C)C (stereo unspecified)
inactive: dose: 75.0 mg/kg/injection, schedule: Q01DX001 (ip), vehicle: saline 102 % of control

C(=N\N=C\c1c[nH]c2ccccc12)/c1c[nH]c2ccccc12
inactive: dose: 100.0 mg/kg/injection, schedule: Q01DX009 (ip), vehicle: gum acacia 87 % of control | dose: 100.0 mg/kg/injection, schedule: Q04DX003 (ip), vehicle: gum acacia 92 % of control | dose: 200.0 mg/kg/injection, schedule: Q01DX009 (ip), vehicle: gum acacia 87 % of control | dose: 200.0 mg/kg/injection, schedule: Q04DX003 (ip), vehicle: gum acacia 89 % of control | dose: 400.0 mg/kg/injection, schedule: Q01DX009 (ip), vehicle: gum acacia 86 % of control | dose: 400.0 mg/kg/injection, schedule: Q04DX003 (ip), vehicle: gum acacia 89 % of control

Cc1ccc(S(=O)(=O)NN=C2CCS(=O)CC2)cc1 (stereo unspecified)
inactive: dose: 100.0 mg/kg/injection, schedule: Q01DX009 (ip), vehicle: Klucel (hydroxypropylcellulose) (HPC) 90 % of control | dose: 200.0 mg/kg/injection, schedule: Q01DX009 (ip), vehicle: Klucel (hydroxypropylcellulose) (HPC) 97 % of control | dose: 400.0 mg/kg/injection, schedule: Q01DX009 (ip), vehicle: Klucel (hydroxypropylcellulose) (HPC) 94 % of control

C=CC(C)(C)c1c(OC(C)=O)cc2oc3c(OC(C)=O)c(OC(C)=O)cc(CC=C(C)C)c3c(=O)c2c1O
inactive: dose: 100.0 mg/kg/injection, schedule: Q01DX001 (ip), vehicle: carboxymethylcellulose (CMC) 95 % of control | dose: 200.0 mg/kg/injection, schedule: Q01DX001 (ip), vehicle: carboxymethylcellulose (CMC) 92 % of control | dose: 400.0 mg/kg/injection, schedule: Q01DX001 (ip), vehicle: carboxymethylcellulose (CMC) 111 % of control

c1ccc([As]2c3ccccc3Nc3ccccc32)cc1
inactive: [11] 89 % of control | [12] 86 % of control | [13] 86 % of control

CCc1ccc(NC(=S)NC(=O)/C=C/c2ccccc2)cc1
inactive: [14] 92 % of control | [9] 99 % of control and 102 % of control | dose: 100.0 mg/kg/injection, schedule: Q04DX002 (ip), vehicle: alcohol 114 % of control | [15] 92 % of control | dose: 200.0 mg/kg/injection, schedule: Q01DX001 (ip), vehicle: saline with Tween-80 87 % of control | [10] 92 % of control and 96 % of control | dose: 200.0 mg/kg/injection, schedule: Q04DX002 (ip), vehicle: alcohol 90 % of control | [16] 89 % of control | [17] 96 % of control and 105 % of control | dose: 400.0 mg/kg/injection, schedule: Q04DX002 (ip), vehicle: alcohol 97 % of control | [18] 87 % of control

O=CC(S)CO (stereo unspecified)
inactive: [3] 103 % of control | [4] 97 % of control | dose: 800.0 mg/kg/injection, schedule: Q01DX001 (ip), vehicle: saline 108 % of control

CC(=O)OC1CCC2(C)C(CCC3C2CCC2(C)C3CC3OC(CCCC(C)CO)C(C)C32)C1 (stereo unspecified)
inactive: dose: 25.0 mg/kg/injection, schedule: Q01DX001 (ip), vehicle: saline with Tween-80 88 % of control | dose: 50.0 mg/kg/injection, schedule: Q01DX001 (ip), vehicle: saline with Tween-80 98 % of control | [14] 95 % of control | [16] 95 % of control

CN(C)C=NC1CCC(C(C)(C)C)CC1 (stereo unspecified)
inactive: dose: 12.5 mg/kg/injection, schedule: Q01DX009 (ip), vehicle: Klucel (hydroxypropylcellulose) (HPC) 96 % of control | dose: 12.5 mg/kg/injection, schedule: Q04DX003 (ip), vehicle: Klucel (hydroxypropylcellulose) (HPC) 103 % of control | dose: 25.0 mg/kg/injection, schedule: Q01DX009 (ip), vehicle: Klucel (hydroxypropylcellulose) (HPC) 102 % of control | dose: 25.0 mg/kg/injection, schedule: Q04DX003 (ip), vehicle: Klucel (hydroxypropylcellulose) (HPC) 95 % of control | dose: 50.0 mg/kg/injection, schedule: Q04DX003 (ip), vehicle: Klucel (hydroxypropylcellulose) (HPC) 93 % of control

O=C(Nc1ccc(Cl)cc1C(=O)c1ccccc1)c1ccc([N+](=O)[O-])cc1
inactive: [6] 89 % of control | [7] 95 % of control | [8] 92 % of control

CCC(C)CC(C)c1ccncc1 (stereo unspecified)
inactive: dose: 5.0 mg/kg/injection, schedule: Q01DX001 (ip), vehicle: saline 97 % of control | dose: 10.0 mg/kg/injection, schedule: Q01DX001 (ip), vehicle: saline 100 % of control | dose: 20.0 mg/kg/injection, schedule: Q01DX001 (ip), vehicle: saline 100 % of control | dose: 40.0 mg/kg/injection, schedule: Q01DX001 (ip), vehicle: saline 97 % of control | dose: 80.0 mg/kg/injection, schedule: Q01DX001 (ip), vehicle: saline 97 % of control | [2] 97 % of control

NCCCSc1ccc(Br)cc1
inactive: dose: 75.0 mg/kg/injection, schedule: Q01DX001 (ip), vehicle: other 102 % of control | dose: 150.0 mg/kg/injection, schedule: Q01DX001 (ip), vehicle: other 96 % of control | dose: 300.0 mg/kg/injection, schedule: Q01DX001 (ip), vehicle: other 92 % of control

CC(C)(C)NCc1cc(C(C)(C)C)cc(-c2ccccc2)c1O
inactive: [2] 100 % of control | [1] 97 % of control | [3] 101 % of control | [5] 90 % of control | [4] 99 % of control

Cc1cc(=O)[nH]c(N(CCO)CCO)n1
inactive: [9] 92 % of control | [15] 94 % of control | [10] 100 % of control | dose: 200.0 mg/kg/injection, schedule: Q04DX003 (ip), vehicle: saline with Tween-80 96 % of control | [17] 100 % of control | [18] 100 % of control

CC1(C)CC(=O)CC(C)(C)ON1
inactive: [11] 99 % of control | [12] 99 % of control | [13] 99 % of control
